Our source for the IC50 values is paper PMC2812657 (Biochemical and biophysical research communications, 2009).

Structures are written as SMILES.

The target in one assay is GSK3β (Homo sapiens, UniProt P49841). The experiment in a line: in vitro kinase profiling assay. The format is biochemical.
A further assay has as its target GSK3α (Homo sapiens, UniProt P49840). Description: in vitro kinase profiling assay.

Chain of GSK3α (P49840 2-483): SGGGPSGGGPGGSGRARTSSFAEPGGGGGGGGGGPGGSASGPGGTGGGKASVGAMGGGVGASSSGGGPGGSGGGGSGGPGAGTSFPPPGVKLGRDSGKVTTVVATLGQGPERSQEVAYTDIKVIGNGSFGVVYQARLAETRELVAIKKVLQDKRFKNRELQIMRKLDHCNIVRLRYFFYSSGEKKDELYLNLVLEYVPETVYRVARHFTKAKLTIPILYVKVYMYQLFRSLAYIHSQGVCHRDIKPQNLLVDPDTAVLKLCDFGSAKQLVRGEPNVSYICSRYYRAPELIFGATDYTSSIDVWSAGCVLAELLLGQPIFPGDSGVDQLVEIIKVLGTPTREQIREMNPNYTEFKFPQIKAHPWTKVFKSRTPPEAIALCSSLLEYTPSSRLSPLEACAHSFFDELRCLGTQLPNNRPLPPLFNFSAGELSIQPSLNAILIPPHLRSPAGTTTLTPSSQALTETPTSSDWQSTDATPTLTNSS
Chain of GSK3β (P49841 whole entry): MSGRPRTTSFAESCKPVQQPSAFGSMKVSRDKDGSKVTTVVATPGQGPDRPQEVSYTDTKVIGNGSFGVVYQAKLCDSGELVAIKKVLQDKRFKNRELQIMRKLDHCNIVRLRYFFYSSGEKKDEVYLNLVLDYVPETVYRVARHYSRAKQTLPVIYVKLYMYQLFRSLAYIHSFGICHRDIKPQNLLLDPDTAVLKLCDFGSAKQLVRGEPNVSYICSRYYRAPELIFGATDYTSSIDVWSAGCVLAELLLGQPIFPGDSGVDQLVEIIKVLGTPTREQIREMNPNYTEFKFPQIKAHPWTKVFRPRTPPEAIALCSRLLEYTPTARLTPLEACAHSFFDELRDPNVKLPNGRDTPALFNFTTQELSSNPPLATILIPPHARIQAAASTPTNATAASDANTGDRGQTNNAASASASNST

As a reminder, the IC50 is the concentration that inhibits the measured activity by half. The low end stands for higher potency, the high end for lower potency. For the molecule `Nc1cccc(-c2cc3c(Oc4cccc(O)c4)ncnc3[nH]2)c1` [TWS119], the concentration for half-maximal inhibition (IC50) was 410 nM on GSK3β and 88 nM at GSK3α.
